The subject of this experiment is DRD oncogenic fibroblast viability, ATP luminescence. The experiment can be described thus: DRD fibroblast viability loss – cell-based, non-viral oncogenic, luminescence, dose response (AID 1934).

Molecules are shown by their SMILES. Records with an inconclusive call do not appear.

In PubChem BioAssay AID1934 (Broad Institute, 2009) one finds EC50 data, which are given here for one compound.

On to `C=C(C=O)CC1CC(O)[C@]2(C)OC3CC4OC5C[C@]6(C)O[C@]7(C)CCC8OC9C[C@]%10(C)OC%11C(C)=CC(=O)OC%11CC%10OC9C[C@@H](C)C8OC7CC6O[C@]5(C)CC5OC5C4OC3CC2O1` (stereo partly specified), for which the EC50 is 824 nM.

What is called EC50 is the concentration giving half of the maximal effect.
